According to US6365594B1, “Heterocycle-condensed morphinoid derivatives (II)” (SmithKline Beecham S.p.A., priority 1996, dated 2002):
Structures can show the parent of a compound that is named as a salt.

Key:
delta receptor = target: T1, delta receptor (Mus musculus, UniProt P32300); experiment: cAMP bioassay in NG108-15 cells (inhibition of forskolin-stimulated cAMP); assay type: cell-based
T1 construct: endogenous in cells; host or cells: NG108-15 cells
Experimental: The delta agonistlantagonist activity of the compounds of the present invention is determined in the cAMP bioassay in NG108-15 cell lines as described below.
NG 108-15 cell were grown at 37° C. in humidified atmosphere of 5% CO2 and 95% air in DMEM (without sodium pyruvate using 4500 mg/l glucose) supplemented with 10% foetal calf serum containing 2 mM glutamine, 2% HAT×50 supplement, 50 μg streptomycin and 50 I.U. penicillin per ml confluent cells were harvested with […] in Ca/Mg-free phosphate-buffered saline with mechanical stiring. Medium was replaced every 2 day. One day before the experiment the cells were dispensed in 17 mm culture plate (about 10×10^6 cells/plate). After 1 day, the growth medium was removed and cells washed twice with a modified Krebs-Ringer medium buffered with hepes-NaOH 200 mM, pH 7.4, that contained (mmol/l): NaCl (125), KCl (5), KH2PO4 (0.4), MgSO4 and CaCl2 (1.2) NaHCO3 (25), glucose (12). Incubation medium was also including 1 mM 3-isobuthyl-1-methylxantine (IBMX). Experiments were performed at room temperature. After incubation for 10 minutes to allow IBMX incorporation, NG108-15 cells were exposed to 1 μM forskolin and the compound to be tested, for 10 minutes. […] The pellets from the original plates were dissolved in NaOH 0.5N and the protein content was determined with the method described by Bradfort (Anal. Biochem. 1976, 72, 248). […]

kappa opioid receptor = target: T2, kappa opioid receptor (Mus musculus, UniProt P33534); experiment: radioligand binding, kappa ligand [3H]-U69593, mouse brain membranes; settings: selectivity ratio
T2 construct: Mouse brain membranes were prepared as described by Kosterlitz; from tissue; host or cells: mouse brain membranes
Experimental: (§1) The activity of the compounds of the present invention as selective delta ligands is determined in radioligand binding assays as described below.
(§2) Mouse brain membranes were prepared as described by Kosterlitz (Br. J. Pharmacol., 1981, 73, 939.). The binding of the preferential delta ligand [^3H]-[D-Ala^2,D-Leu^5]-enkephalin (DADLE) was evaluated at its KD concentration (1.3 nM) in presence of 40 nM of the unlabelled mu ligand [D-Ala^2, MePhe^4, Gly-ol^5]-enkephalin (DAMGO). The binding of the mu ligand [^3H]-DAMGO (Eur. J. Pharmacol., 1989, 166, 213) and of the kappa ligand [^3H]-U69593 (Excerpta Medica, 1990, 211) were carried out at 0.5 nM. The non-specific binding was determined in presence of naloxone (10 μM) for all tritiated ligands. Binding data were expressed as percentage of inhibition and fitted the following equation: f(x)=100·X/(IC50+X) where X are cold drug concentration values. The IC50 obtained were used to calculate the inhibitory constants (Ki) accordingly to the Cheng and Prusoff relation (Biochem. Pharmacol., 1973, 22, 3099).

mu opioid receptor = target: T3, mu opioid receptor (Mus musculus, UniProt P42866); experiment: radioligand binding, mu ligand [3H]-DAMGO, mouse brain membranes; settings: selectivity ratio
T3 construct: Mouse brain membranes were prepared as described by Kosterlitz; from tissue; host or cells: mouse brain membranes
Experimental: as §1, §2

T1 sequence (P32300 whole entry): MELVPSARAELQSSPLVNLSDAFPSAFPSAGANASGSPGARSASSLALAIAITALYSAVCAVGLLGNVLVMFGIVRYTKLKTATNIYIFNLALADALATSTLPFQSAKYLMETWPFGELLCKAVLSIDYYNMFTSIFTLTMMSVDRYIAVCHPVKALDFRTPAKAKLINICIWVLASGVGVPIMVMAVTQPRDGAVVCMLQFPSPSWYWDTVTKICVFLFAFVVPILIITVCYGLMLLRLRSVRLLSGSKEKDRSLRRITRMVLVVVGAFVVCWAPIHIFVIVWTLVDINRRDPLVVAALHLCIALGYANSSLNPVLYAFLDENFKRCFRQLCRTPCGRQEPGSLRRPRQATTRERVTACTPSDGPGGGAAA
T2 sequence (P33534 whole entry): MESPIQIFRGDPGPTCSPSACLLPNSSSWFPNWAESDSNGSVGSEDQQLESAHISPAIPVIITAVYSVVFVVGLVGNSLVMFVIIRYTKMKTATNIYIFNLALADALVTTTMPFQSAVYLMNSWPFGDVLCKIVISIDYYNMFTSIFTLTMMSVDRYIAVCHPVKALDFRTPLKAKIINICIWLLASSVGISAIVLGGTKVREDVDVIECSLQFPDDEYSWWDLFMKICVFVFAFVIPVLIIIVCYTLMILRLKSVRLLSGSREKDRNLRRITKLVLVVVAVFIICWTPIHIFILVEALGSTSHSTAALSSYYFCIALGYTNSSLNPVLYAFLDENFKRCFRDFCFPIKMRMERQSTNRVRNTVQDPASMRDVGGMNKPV
T3 sequence (P42866 whole entry): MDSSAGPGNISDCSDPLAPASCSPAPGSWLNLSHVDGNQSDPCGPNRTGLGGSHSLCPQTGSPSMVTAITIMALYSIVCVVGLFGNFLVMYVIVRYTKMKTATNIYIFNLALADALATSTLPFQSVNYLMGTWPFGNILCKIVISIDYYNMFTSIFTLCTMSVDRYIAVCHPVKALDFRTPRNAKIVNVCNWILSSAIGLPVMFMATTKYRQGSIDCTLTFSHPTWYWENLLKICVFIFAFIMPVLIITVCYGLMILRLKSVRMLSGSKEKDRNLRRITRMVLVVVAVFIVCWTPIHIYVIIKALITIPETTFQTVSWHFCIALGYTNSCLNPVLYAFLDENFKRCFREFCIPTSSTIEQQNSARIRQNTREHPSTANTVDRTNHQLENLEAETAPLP

Structure (SMILES) | IC50 (delta receptor) [nM] | antagonism of the agonist activity by the selective delta antagonist naltrindole (delta receptor; NG108-15 cells, naltrindole 100 nM) | Ki kappa/Ki delta (kappa opioid receptor) | melting point [°C] | Ki mu/Ki delta (mu opioid receptor)
COc1ccc2c3c1O[C@H]1c4[nH]c(C(=O)N(Cc5ccccc5)C(C)C)c(C)c4C[C@H]4[C@@H](C2)N(C)CC[C@]314 [Example 1, [R-(4bS*,8α,s8aβp,12βp)]11(N-N-benzylN-isopropylaminocarbonyl)-7,10dimethyl-1-methoxy-5,6,7,8,12,12b-hexahydro-(9H){4,8methanobenzofuro[3,2]pyrrolo[2,3-g]soquinoline hydrochloride] | 15 | completely antagonised | – | – | –
CCOC(=O)c1[nH]c2c(c1C(F)(F)F)C[C@H]1[C@H]3Cc4ccc(OC)c5c4[C@@]1(CCN3C)[C@H]2O5 [Example 10] | – | – | 600 | 174 | 840
